Among the data in patent US8846933B2, “N-link hydroxamic acid derivatives useful as antibacterial agents” (Pfizer Inc., priority 2009, dated 2014) are EC-1 (MIC) and PA-7 (MIC) values, retold here.

Assay [1] concerns Escherichia coli EC-1: VOGEL, mouse virulent. Briefly: MIC determination (CLSI), strain EC-1. It counts as cell-based. Particulars: strain EC-1, unit assumed. The essentials:
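The mouse-virulent VOGEL isolate of E. coli, EC-1, served as test organism. Minimum inhibitory concentration was measured by CLSI dilution methodology (M7-A7; M100-S18 standards).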

The subject of assay [2] is Pseudomonas aeruginosa UI-18: Wild-type (PA-7). Briefly: MIC determination (CLSI), strain PA-7. Format: cell-based. As to conditions: strain PA-7, unit assumed. The essentials: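 MIC determined by broth dilution per CLSI M7-A7 guidelines with M100-S18 interpretive standards. Test organism: wild-type Pseudomonas aeruginosa UI-18, designated PA-7.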
[3] abbreviates: generated in the same manner as in Table 4.

`Cc1cc(-c2ccn(CC[C@](C)(C(=O)NO)S(C)(=O)=O)c(=O)c2)ccc1F` [Example 325, (2R)-4-[4-(4-fluoro-3-methylphenyl)-2-oxopyridin-1(2H)-yl]-N-hydroxy-2-methyl-2-(methylsulfonyl)butanamide] displayed an EC-1 (MIC) in assay [1] of 0.5 µg/mL. This molecule also displayed a PA-7 (MIC) in assay [2] of 0.5 µg/mL.

Turning to `C[C@@](CCn1ccc(-c2ccc(-n3ncc[n+]3[O-])cc2)cc1=O)(C(=O)NO)S(C)(=O)=O` [Example 401, (2R)-N-hydroxy-2-methyl-2-(methylsulfonyl)-4-{4-[4-(1-oxido-2H-1,2,3-triazol-2-yl)phenyl]-2-oxopyridin-1(2H)-yl}butanamide], the EC-1 (MIC) in assay [1] was found to be 8 µg/mL. This molecule displayed a PA-7 (MIC) in assay [2] of 8 µg/mL.

In turn, `Cc1cc(OCCCO)ccc1-c1ccn(CCC(C)(C(=O)NO)S(C)(=O)=O)c(=O)c1` (stereo not shown) [Example 252, N-hydroxy-4-{4-[4-(3-hydroxypropoxy)-2-methylphenyl]-2-oxopyridin-1(2H)-yl}-2-methyl-2-(methylsulfonyl)butanamide] returned an EC-1 (MIC) in assay [1] of 16 µg/mL. Besides, in assay [2], the PA-7 (MIC) is 16 µg/mL.

For `CC(CCn1ccc(-c2ccc(F)cc2Cl)cc1=O)(C(=O)NO)S(C)(=O)=O` (stereo not shown) [Example 155, 4-[4-(2-chloro-4-fluorophenyl)-2-oxopyridin-1(2H)-yl]-N-hydroxy-2-methyl-2-(methylsulfonyl)butanamide], the EC-1 (MIC) in assay [1] (setting [3]) worked out at 4 µg/mL. Also, in assay [2] (setting [3]), the PA-7 (MIC) amounted to 0.5 µg/mL.

The molecule `C[C@@](CCn1ccc(-c2ccc(-c3ncno3)cc2)cc1=O)(C(=O)NO)S(C)(=O)=O` [Example 417, (2R)-N-hydroxy-2-methyl-2-(methylsulfonyl)-4-{4-[4-(1,2,4-oxadiazol-5-yl)phenyl]-2-oxopyridin-1(2H)-yl}butanamide] gave an EC-1 (MIC) in assay [1] of 8 µg/mL. This molecule came in with a PA-7 (MIC) in assay [2] of 64 µg/mL.

Consider `CCOc1ccc(-c2ccn(CCC(C)(C(=O)NO)S(C)(=O)=O)c(=O)c2)cn1` (stereo not shown) [Example 185, 4-(6-ethoxy-2′-oxo-3,4′-bipyridin-1′(2′H)-yl)-N-hydroxy-2-methyl-2-(methylsulfonyl)butanamide], for which the EC-1 (MIC) in assay [1] was determined as 2 µg/mL. In assay [2], the PA-7 (MIC) was 4 µg/mL.

As to `COc1ncc(-c2ccc(-c3ccn(CC[C@](C)(C(=O)NO)S(C)(=O)=O)c(=O)c3)cc2)cn1` [Example 410, (2R)-N-hydroxy-4-{4-[4-(2-methoxypyrimidin-5-yl)phenyl]-2-oxopyridin-1(2H)-yl}-2-methyl-2-(methylsulfonyl)butanamide], in assay [1], the EC-1 (MIC) is 0.5 µg/mL. This molecule gave a PA-7 (MIC) in assay [2] of 1 µg/mL.

Consider `CC(C)Oc1ncccc1-c1ccn(CCC(C)(C(=O)NO)S(C)(=O)=O)c(=O)c1` (stereo not shown) [Example 168, N-hydroxy-4-(2-isopropoxy-2′-oxo-3,4′-bipyridin-1′(2′H)-yl)-2-methyl-2-(methylsulfonyl)butanamide], for which the EC-1 (MIC) in assay [1] (setting [3]) is above 64 µg/mL. For the same molecule, the PA-7 (MIC) in assay [2] (setting [3]) is above 64 µg/mL.

In assay [1], `C[C@@](CCn1ccc(-c2ccc(C3(O)CCC3)cc2)cc1=O)(C(=O)NO)S(C)(=O)=O` [Example 351, (2R)-N-hydroxy-4-{4-[4-(1-hydroxycyclobutyl)phenyl]-2-oxopyridin-1(2H)-yl}-2-methyl-2-(methylsulfonyl)butanamide] had an EC-1 (MIC) of 16 µg/mL. In assay [2], this molecule displayed a PA-7 (MIC) of 16 µg/mL.

In assay [1], `CCCC(CCn1ccc(-c2ccccc2)cc1=O)(C(=O)NO)S(C)(=O)=O` (stereo not shown) [Example 294] yielded an EC-1 (MIC) above 64 µg/mL. In assay [2], this molecule had a PA-7 (MIC) above 64 µg/mL.

In the case of `CC(CCn1ccc(-c2ccc(OCCCN3CCOCC3)cc2F)cc1=O)(C(=O)NO)S(C)(=O)=O` (stereo not shown) [Example 226, 4-{4-[2-fluoro-4-(3-morpholin-4-ylpropoxy)phenyl]-2-oxopyridin-1(2H)-yl}-N-hydroxy-2-methyl-2-(methylsulfonyl)butanamide], in assay [1], the EC-1 (MIC) came to 2 µg/mL. Moreover, the PA-7 (MIC) in assay [2] is 8 µg/mL.

With `CN1Cc2ccc(-c3ccn(CCC(C)(C(=O)NO)S(C)(=O)=O)c(=O)c3)cc2C1=O` (stereo not shown) [Example 162, N-hydroxy-2-methyl-4-[4-(2-methyl-3-oxo-2,3-dihydro-1H-isoindol-5-yl)-2-oxopyridin-1(2H)-yl]-2-(methylsulfonyl)butanamide], the EC-1 (MIC) in assay [1] (setting [3]) was above 64 µg/mL. In assay [2] (setting [3]), the PA-7 (MIC) is above 64 µg/mL.

In the case of `C[C@@](CCn1ccc(-c2ccc(OC(F)F)cc2)cc1=O)(C(=O)NO)S(C)(=O)=O` [Example 338, (2R)-4-{4-[4-(difluoromethoxy)phenyl]-2-oxopyridin-1(2H)-yl}-N-hydroxy-2-methyl-2-(methylsulfonyl)butanamide], in assay [1], the EC-1 (MIC) was determined as 0.5 µg/mL. Moreover, the PA-7 (MIC) in assay [2] turned out to be 0.5 µg/mL.

Take `CC(CCn1ccc(-c2ccncc2)cc1=O)(C(=O)NO)S(C)(=O)=O` (stereo not shown) [Example 218, N-hydroxy-2-methyl-2-(methylsulfonyl)-4-(2-oxo-4,4′-bipyridin-1(2H)-yl)butanamide]: in assay [1], the EC-1 (MIC) was above 64 µg/mL. The PA-7 (MIC) in assay [2] was 64 µg/mL.

The molecule `CC(CCn1ccc(-c2ccc(OCCCN3CCOCC3)c(F)c2)cc1=O)(C(=O)NO)S(C)(=O)=O` (stereo not shown) [Example 223, 4-{4-[3-fluoro-4-(3-morpholin-4-ylpropoxy)phenyl]-2-oxopyridin-1(2H)-yl}-N-hydroxy-2-methyl-2-(methylsulfonyl)butanamide] displayed an EC-1 (MIC) in assay [1] of 4 µg/mL. The molecule further registered a PA-7 (MIC) in assay [2] of 8 µg/mL.

On to `COc1ccc(-c2ccn(CCC(C)(C(=O)NO)S(C)(=O)=O)c(=O)c2)cc1OC` (stereo not shown) [Example 138, 4-[4-(3,4-dimethoxyphenyl)-2-oxopyridin-1(2H)-yl]-N-hydroxy-2-methyl-2-(methylsulfonyl)butanamide], for which the EC-1 (MIC) in assay [1] (setting [3]) stood at 64 µg/mL. In assay [2] (setting [3]), the PA-7 (MIC) amounted to 64 µg/mL.

As for `Cc1cc(C#N)ccc1-c1ccn(CC[C@](C)(C(=O)NO)S(C)(=O)=O)c(=O)c1` [Example 472], the EC-1 (MIC) in assay [1] was determined as 32 µg/mL. Also, the PA-7 (MIC) in assay [2] came to 8 µg/mL.

In assay [1], `CC1(O)CCC(Oc2ccc(-c3ccn(CC[C@](C)(C(=O)NO)S(C)(=O)=O)c(=O)c3)c(F)c2)CC1` (stereo partly drawn) [Example 326, (2R)-4-[4-{2-fluoro-4-[(4-hydroxy-4-methylcyclohexyl)oxy]phenyl}-2-oxopyridin-1(2H)-yl]-N-hydroxy-2-methyl-2-(methylsulfonyl)butanamide] yielded an EC-1 (MIC) of 0.5 µg/mL. Also, the PA-7 (MIC) in assay [2] stood at 4 µg/mL.

In assay [1], `Cc1cc(-c2ccc(-c3ccn(CC[C@](C)(C(=O)NO)S(C)(=O)=O)c(=O)c3)cc2)[nH]n1` [Example 369] came in with an EC-1 (MIC) of 2 µg/mL. In addition, in assay [2], the PA-7 (MIC) worked out at 4 µg/mL.

Molecule `CC(C)(C)NC(=O)c1cncc(-c2ccn(CCC(C)(C(=O)NO)S(C)(=O)=O)c(=O)c2)c1` (stereo not shown) [Example 154, N-tert-butyl-1′-[4-(hydroxyamino)-3-methyl-3-(methylsulfonyl)-4-oxobutyl]-2′-oxo-1′,2′-dihydro-3,4′-bipyridine-5-carboxamide] had an EC-1 (MIC) in assay [1] (setting [3]) above 64 µg/mL. In assay [2] (setting [3]), this molecule returned a PA-7 (MIC) above 64 µg/mL.

As to `CCOc1ccc(Cl)cc1-c1ccn(CCC(C)(C(=O)NO)S(C)(=O)=O)c(=O)c1` (stereo not shown) [Example 105, 4-[4-(5-chloro-2-ethoxyphenyl)-2-oxopyridin-1(2H)-yl]-N-hydroxy-2-methyl-2-(methylsulfonyl)butanamide], the EC-1 (MIC) in assay [1] (setting [3]) was above 64 µg/mL. Also, the PA-7 (MIC) in assay [2] (setting [3]) is above 64 µg/mL.

`CC(CCn1ccc(-c2cc3ccncc3cc2F)cc1=O)(C(=O)NO)S(C)(=O)=O` (stereo not shown) [Example 306, 4-[4-(7-fluoroisoquinolin-6-yl)-2-oxopyridin-1(2H)-yl]-N-hydroxy-2-methyl-2-(methylsulfonyl)butanamide] came in with an EC-1 (MIC) in assay [1] of 8 µg/mL. The molecule further displayed a PA-7 (MIC) in assay [2] of 4 µg/mL.

In assay [1] (setting [3]), `COc1ccccc1-c1ccn(CCC(C)(C(=O)NO)S(C)(=O)=O)c(=O)c1` (stereo not shown) [Example 120, N-hydroxy-4-[4-(2-methoxyphenyl)-2-oxopyridin-1(2H)-yl]-2-methyl-2-(methylsulfonyl)butanamide] displayed an EC-1 (MIC) of 64 µg/mL. This molecule returned a PA-7 (MIC) in assay [2] (setting [3]) of 16 µg/mL.

`CC(CCn1ccc(-c2cc(F)c(F)c(F)c2)cc1=O)(C(=O)NO)S(C)(=O)=O` (stereo not shown) [Example 130, N-hydroxy-2-methyl-2-(methylsulfonyl)-4-[2-oxo-4-(3,4,5-trifluorophenyl)pyridin-1(2H)-yl]butanamide]: the EC-1 (MIC) in assay [1] (setting [3]) was 16 µg/mL. Moreover, the PA-7 (MIC) in assay [2] (setting [3]) turned out to be 8 µg/mL.

In turn, `CN1CCN(CCCOc2ccc(-c3ccn(CCC(C)(C(=O)NO)S(C)(=O)=O)c(=O)c3)cc2)CC1` (stereo not shown) [Example 87] returned an EC-1 (MIC) in assay [1] (setting [3]) of 64 µg/mL. The same molecule gave a PA-7 (MIC) in assay [2] (setting [3]) of 32 µg/mL.

`CC(CCn1ccc(-c2cc(F)ccc2OC(F)(F)F)cc1=O)(C(=O)NO)S(C)(=O)=O` (stereo not shown) [Example 137, 4-{4-[5-fluoro-2-(trifluoromethoxy)phenyl]-2-oxopyridin-1(2H)-yl}-N-hydroxy-2-methyl-2-(methylsulfonyl)butanamide] registered an EC-1 (MIC) in assay [1] (setting [3]) above 64 µg/mL. The same molecule registered a PA-7 (MIC) in assay [2] (setting [3]) above 64 µg/mL.

In assay [1] (setting [3]), `CC(CCn1ccc(-c2cccc(C#N)c2)cc1=O)(C(=O)NO)S(C)(=O)=O` (stereo not shown) [Example 169, 4-[4-(3-cyanophenyl)-2-oxopyridin-1(2H)-yl]-N-hydroxy-2-methyl-2-(methylsulfonyl)butanamide] came in with an EC-1 (MIC) above 64 µg/mL. The molecule further returned a PA-7 (MIC) in assay [2] (setting [3]) of 64 µg/mL.

As to `CC(CCn1ccc(-c2ccc(OCCCO)c(F)c2)cc1=O)(C(=O)NO)S(C)(=O)=O` (stereo not shown) [Example 247, 4-{4-[3-fluoro-4-(3-hydroxypropoxy)phenyl]-2-oxopyridin-1(2H)-yl}-N-hydroxy-2-methyl-2-(methylsulfonyl)butanamide], the EC-1 (MIC) in assay [1] was 4 µg/mL. In assay [2], this molecule displayed a PA-7 (MIC) of 8 µg/mL.

In turn, `CC(CCn1ccc(-c2ccc(OCCc3cccnc3)cc2)cc1=O)(C(=O)NO)S(C)(=O)=O` (stereo not shown) [Example 271, N-hydroxy-2-methyl-2-(methylsulfonyl)-4-{2-oxo-4-[4-(2-pyridin-3-ylethoxy)phenyl]pyridin-1(2H)-yl}butanamide] showed an EC-1 (MIC) in assay [1] of 0.25 µg/mL. This molecule also came in with a PA-7 (MIC) in assay [2] of 2 µg/mL.
